# Columns and labels:
# Assay type in all cases: physicochemical
# [1] = Solubility in water (saturated solution / solubility limit); conditions: for dissolution (in words): 0.1 g urea in 99.9 g water, shaken 1-2 h; for solubility thermodynamic: saturated solution in distilled water, solids filtered off, read-out: Concentration of saturated solution
# Method: (§1) A series of aqueous solutions of various concentrations of n-octylurea [Pfaltz & Bauer] was prepared by placing the urea into water and shaking the mixture for 1-2 h. All of the urea dissolved in the low concentration samples. Undissolved urea in some of the higher concentration samples was remove by filtration. Surface tensions of these solutions were measured using the Wilheimy plate technique. This method provides equilibrium surface tension values. Equilibrium values are always equal to or lower than those obtained under dynamic conditions.
# (§2) A saturated solution in distilled water of N,N'-di-n-butylurea was prepared by placing 0.1 g of the urea into 99.9 g of water and shaking the mixture for 1-2 h. […] The solids were removed by filtration, and the dynamic surface tension of the resulting solution was measured using the maximum bubble pressure method at bubble rates from 0.1 to 20 b/s. […] In practical terms, high bubble rates correspond to high printing speeds in lithographic or ink-jet printing, high spray or roller velocities in coating applications, and rapid application rates for agricultural products.
# A saturated solution in distilled water of N,N-di-(2-ethylhexyl)urea was prepared by placing 0.1 g of the urea into 99.9 g of water and shaking the mixture for 1-2 h. […] The solids were removed by filtration, and the surface tension of the resulting solution was measured as described above.
# Similarly, a saturated solution in distilled water of N,N-di-n-octylurea was prepared by placing 0.1 g of the urea into 99.9 g of water and shaking the mixture for 1-2 hr. […] The solids were removed by filtration, and the surface tension of the resulting solution was measured as described above.
# A saturated solution in distilled water of N,N-di-n-hexylurea was prepared by placing 0.1 g of the urea into 99.9 g of water and shaking the mixture for 1-2 h. […] The solids were removed by filtration, and the surface tension of the resulting solution was measured as described above.
# [2] = Dynamic surface tension of aqueous solutions, maximum-bubble-pressure method; conditions: for Dynamic Surface Tension: about 23° C.; for Surface tension reduction (in words): summary of dynamic surface tension data
# Excerpt: This invention relates to the use of compounds of the formula [drawing 3] where R1 and R2 are independently C1 to C6 alkyl or cycloalkyl with the total number of carbons in R and R' being 6-12 for the reduction of equilibrium and dynamic surface tension in water-based formulations containing an organic compound, particularly coating, ink, and agricultural formulations. […] The maximum-bubble-pressure method of measuring surface tension is described in Langmuir 1986, 2, 428-432, which is incorporated by reference.
# In the following examples dynamic surface tension data were generated for aqueous solutions of the indicated compounds using the maximum-bubble-pressure method at the indicated bubble rates, i.e., bubbles/second (b/s), and room temperature of about 23° C. The equipment used was a Kruss BP 2 bubble pressure tensiometer.
# as §2
# Aqueous solutions of N,N-dibutylurea were prepared and their surface tensions were measured using the procedure described above.
# [3] = Foaming properties of 0.1 wt % solution, procedure based upon ASTM D 1173-53
# Method: The foaming properties of a 0.1 wt % solution of N,N-dibutylurea, N,N-dipentyl-urea, and N,N-dihexylurea were examined using a procedure based upon ASTM D 1173-53. In this test, a 0.1 wt % solution of the surfactant is added from an elevated foam pipette to a foam receiver containing the same solution. The foam height is measured at the completion of the addition ("Initial Foam Height") and the time required for the foam to dissipate is recorded ("Time to 0 Foam"). This test provides a comparison between the foaming characteristics of various surfactant solutions. In general, in coatings, inks, and agricultural formulations, foam is undesirable because is complicates handling and can lead to coating and print defects, and to inefficient application of agricultural materials.
# [4] = Equilibrium surface tension of aqueous solutions, Wilhelmy plate technique
# Method: as §1
compound,measurement,setting,value
"CCCCNC(=O)NCCCC [N,N'-Di-n-butylurea, N,N'-di-n-butylurea, reference compound]",dissolution (in words),[1],"Most of the N,N'-di-n-butylurea remained undissolved"
same,solubility thermodynamic,[1],< 1000 µg/mL
same,Dynamic Surface Tension,"[2]; saturated (<0.1 wt %), 0.1 b/s",59.0 dyne/cm
same,Dynamic Surface Tension,"[2]; saturated (<0.1 wt %), 1 b/s",59.6 dyne/cm
same,Dynamic Surface Tension,"[2]; saturated (<0.1 wt %), 6 b/s",60.2 dyne/cm
same,Dynamic Surface Tension,"[2]; saturated (<0.1 wt %), 15 b/s",60.6 dyne/cm
same,Dynamic Surface Tension,"[2]; saturated (<0.1 wt %), 20 b/s",60.9 dyne/cm
"CCCCC(CC)CN(CC(CC)CCCC)C(N)=O (stereo not shown) [N,N-Di-(2-ethylhexyl)urea, N,N-di-(2-ethylhexyl)urea, reference compound]",dissolution (in words),[1],Most of the urea remained undissolved
same,solubility thermodynamic,[1],< 1000 µg/mL
same,Dynamic Surface Tension,"[2]; saturated (<0.1 wt %), 0.1 b/s",60.1 dyne/cm
same,Dynamic Surface Tension,"[2]; saturated (<0.1 wt %), 1 b/s",69.2 dyne/cm
same,Dynamic Surface Tension,"[2]; saturated (<0.1 wt %), 6 b/s",69.6 dyne/cm
same,Dynamic Surface Tension,"[2]; saturated (<0.1 wt %), 15 b/s",69.3 dyne/cm
same,Dynamic Surface Tension,"[2]; saturated (<0.1 wt %), 20 b/s",68.1 dyne/cm
"CCCCCCN(CCCCCC)C(N)=O [N,N-Di-n-hexylurea, N,N-di-n-hexylurea]",dissolution (in words),[1],"Most of the N,N-di-n-hexylurea remained undissolved"
same,solubility thermodynamic,[1],< 1000 µg/mL
same,Initial Foam Height,[3],1.0 cm
same,Time to 0 Foam,[3],2 s
same,Dynamic Surface Tension,"[2]; saturated (<0.1 wt %), 0.1 b/s",34.7 dyne/cm
same,Dynamic Surface Tension,"[2]; saturated (<0.1 wt %), 1 b/s",42.8 dyne/cm
same,Dynamic Surface Tension,"[2]; saturated (<0.1 wt %), 6 b/s",56.8 dyne/cm
same,Dynamic Surface Tension,"[2]; saturated (<0.1 wt %), 15 b/s",63.7 dyne/cm
same,Dynamic Surface Tension,"[2]; saturated (<0.1 wt %), 20 b/s",62.4 dyne/cm
"CCCCCCCCN(CCCCCCCC)C(N)=O [N,N-Di-n-octylurea, N,N-di-n-octylurea, reference compound]",dissolution (in words),[1],Most of the urea remained undissolved
same,solubility thermodynamic,[1],< 1000 µg/mL
same,Dynamic Surface Tension,"[2]; saturated (<0.1 wt %), 0.1 b/s",52.9 dyne/cm
same,Dynamic Surface Tension,"[2]; saturated (<0.1 wt %), 1 b/s",69.8 dyne/cm
same,Dynamic Surface Tension,"[2]; saturated (<0.1 wt %), 6 b/s",71.1 dyne/cm
same,Dynamic Surface Tension,"[2]; saturated (<0.1 wt %), 15 b/s",70.3 dyne/cm
same,Dynamic Surface Tension,"[2]; saturated (<0.1 wt %), 20 b/s",69.4 dyne/cm
"CCCN(CCC)C(N)=O [N,N-Di-n-propylurea, N,N-di-n-propylurea]",Dynamic Surface Tension,"[2]; 0.5 wt %, 0.1 b/s",53.8 dyne/cm
same,Dynamic Surface Tension,"[2]; 0.5 wt %, 1 b/s",54.0 dyne/cm
same,Dynamic Surface Tension,"[2]; 0.5 wt %, 6 b/s",54.3 dyne/cm
same,Dynamic Surface Tension,"[2]; 0.5 wt %, 15 b/s",53.8 dyne/cm
same,Dynamic Surface Tension,"[2]; 0.5 wt %, 20 b/s",53.7 dyne/cm
same,Dynamic Surface Tension,"[2]; 2.0 wt %, 0.1 b/s",43.4 dyne/cm
same,Dynamic Surface Tension,"[2]; 2.0 wt %, 1 b/s",43.6 dyne/cm
same,Dynamic Surface Tension,"[2]; 2.0 wt %, 6 b/s",43.9 dyne/cm
same,Dynamic Surface Tension,"[2]; 2.0 wt %, 15 b/s",44.4 dyne/cm
same,Dynamic Surface Tension,"[2]; 2.0 wt %, 20 b/s",44.5 dyne/cm
same,Dynamic Surface Tension,"[2]; 4.0 wt %, 0.1 b/s",39.0 dyne/cm
same,Dynamic Surface Tension,"[2]; 4.0 wt %, 1 b/s",39.1 dyne/cm
same,Dynamic Surface Tension,"[2]; 4.0 wt %, 6 b/s",39.3 dyne/cm
same,Dynamic Surface Tension,"[2]; 4.0 wt %, 15 b/s",39.5 dyne/cm
same,Dynamic Surface Tension,"[2]; 4.0 wt %, 20 b/s",39.6 dyne/cm
same,Surface tension reduction (in words),[2],reasonably effective at reducing the surface tension of water
"CCCCN(CCCC)C(N)=O [N,N-Dibutylurea, N,N-dibutylurea]",Initial Foam Height,[3],3.0 cm
same,Time to 0 Foam,[3],5 s
same,Dynamic Surface Tension,"[2]; 0.3 wt %, 0.1 b/s",42.9 dyne/cm
same,Dynamic Surface Tension,"[2]; 0.3 wt %, 1 b/s",43.1 dyne/cm
same,Dynamic Surface Tension,"[2]; 0.3 wt %, 6 b/s",43.4 dyne/cm
same,Dynamic Surface Tension,"[2]; 0.3 wt %, 15 b/s",43.4 dyne/cm
same,Dynamic Surface Tension,"[2]; 0.3 wt %, 20 b/s",43.6 dyne/cm
same,Dynamic Surface Tension,"[2]; 1.0 wt %, 0.1 b/s",32.7 dyne/cm
same,Dynamic Surface Tension,"[2]; 1.0 wt %, 1 b/s",32.9 dyne/cm
same,Dynamic Surface Tension,"[2]; 1.0 wt %, 6 b/s",33.2 dyne/cm
same,Dynamic Surface Tension,"[2]; 1.0 wt %, 15 b/s",33.8 dyne/cm
same,Dynamic Surface Tension,"[2]; 1.0 wt %, 20 b/s",34.1 dyne/cm
same,Dynamic Surface Tension,"[2]; 1.5 wt %, 0.1 b/s",28.2 dyne/cm
same,Dynamic Surface Tension,"[2]; 1.5 wt %, 1 b/s",28.3 dyne/cm
same,Dynamic Surface Tension,"[2]; 1.5 wt %, 6 b/s",28.5 dyne/cm
same,Dynamic Surface Tension,"[2]; 1.5 wt %, 15 b/s",29.1 dyne/cm
same,Dynamic Surface Tension,"[2]; 1.5 wt %, 20 b/s",29.5 dyne/cm
same,Dynamic Surface Tension,"[2]; 1.5 wt %, 20 b/s, listed as N,N-dibutylurea",below 30 dyne/cm
same,Surface tension reduction (in words),[2],highly effective at reducing the surface tension of water
"CCCCCCCCNC(N)=O [N-Octylurea, n-octylurea]",solubility,[1]; in water,100 µg/mL
same,Equilibrium surface tension,[4]; 0.0001 wt % in water,72.2 dyne/cm
same,Equilibrium surface tension,[4]; 0.0005 wt % in water,72.1 dyne/cm
same,Equilibrium surface tension,[4]; 0.001 wt % in water,72.0 dyne/cm
same,Equilibrium surface tension,[4]; 0.003 wt % in water,68.9 dyne/cm
same,Equilibrium surface tension,[4]; 0.005 wt % in water,62.4 dyne/cm
same,Equilibrium surface tension,[4]; 0.007 wt % in water,60.0 dyne/cm
same,Equilibrium surface tension,[4]; 0.009 wt % in water,57.0 dyne/cm
same,Equilibrium surface tension,[4]; 0.015 wt % in water,57.1 dyne/cm
same,Equilibrium surface tension,[4]; 0.03 wt % in water,55.5 dyne/cm
same,Equilibrium surface tension,[4]; 0.06 wt % in water,57.1 dyne/cm
same,lowest surface tension which can be obtained for an aqueous solution,[4]; limiting value from Table 1 data,about 56 dyne/cm
CN(C(N)=O)C1CCCCC1 [N-cyclohexyl-N-methylurea],Dynamic Surface Tension,"[2]; 1.0 wt %, 0.1 b/s",51.9 dyne/cm
same,Dynamic Surface Tension,"[2]; 1.0 wt %, 1 b/s",52.4 dyne/cm
same,Dynamic Surface Tension,"[2]; 1.0 wt %, 6 b/s",52.9 dyne/cm
same,Dynamic Surface Tension,"[2]; 1.0 wt %, 15 b/s",53.2 dyne/cm
same,Dynamic Surface Tension,"[2]; 1.0 wt %, 20 b/s",53.2 dyne/cm
same,Dynamic Surface Tension,"[2]; 2.5 wt %, 0.1 b/s",44.1 dyne/cm
same,Dynamic Surface Tension,"[2]; 2.5 wt %, 1 b/s",44.6 dyne/cm
same,Dynamic Surface Tension,"[2]; 2.5 wt %, 6 b/s",45.1 dyne/cm
same,Dynamic Surface Tension,"[2]; 2.5 wt %, 15 b/s",45.6 dyne/cm
same,Dynamic Surface Tension,"[2]; 2.5 wt %, 20 b/s",45.8 dyne/cm
same,Surface tension reduction (in words),[2],reasonably effective at reducing the surface tension of water
"N,N-dipentylurea",solubility limit,[1]; in water,0.3 wt %
same,Initial Foam Height,[3],1.5 cm
same,Time to 0 Foam,[3],3 s
same,Dynamic Surface Tension,"[2]; 0.1 wt %, 0.1 b/s",36.3 dyne/cm
same,Dynamic Surface Tension,"[2]; 0.1 wt %, 1 b/s",37.1 dyne/cm
same,Dynamic Surface Tension,"[2]; 0.1 wt %, 6 b/s",38.7 dyne/cm
same,Dynamic Surface Tension,"[2]; 0.1 wt %, 15 b/s",40.7 dyne/cm
same,Dynamic Surface Tension,"[2]; 0.1 wt %, 20 b/s",41.3 dyne/cm
same,Dynamic Surface Tension,"[2]; 0.2 wt %, 0.1 b/s",32.8 dyne/cm
same,Dynamic Surface Tension,"[2]; 0.2 wt %, 1 b/s",33.4 dyne/cm
same,Dynamic Surface Tension,"[2]; 0.2 wt %, 6 b/s",34.6 dyne/cm
same,Dynamic Surface Tension,"[2]; 0.2 wt %, 15 b/s",36.2 dyne/cm
same,Dynamic Surface Tension,"[2]; 0.2 wt %, 20 b/s",36.3 dyne/cm
same,Dynamic Surface Tension,"[2]; 0.3 wt %, 0.1 b/s",30.9 dyne/cm
same,Dynamic Surface Tension,"[2]; 0.3 wt %, 1 b/s",31.5 dyne/cm
same,Dynamic Surface Tension,"[2]; 0.3 wt %, 6 b/s",32.4 dyne/cm
same,Dynamic Surface Tension,"[2]; 0.3 wt %, 15 b/s",32.9 dyne/cm
same,Dynamic Surface Tension,"[2]; 0.3 wt %, 20 b/s",33.1 dyne/cm

# Source: patent US5985968A, “Surface tension reduction with N,N-dialkyl ureas” (Air Products and Chemicals, Inc., priority 1997, dated 1999)
